From US20220289698A1, “INHIBITORS OF HUMAN ATGL” (Karl-Franzens-Universität Graz, priority 2019, published 2022)
Read-outs that look alike come from different tables or passages of the source.

Columns and labels:
[1] = target: T1, human ATGL (Homo sapiens, UniProt Q96AD5); experiment: Ki determination, human ATGL lysates with increasing substrate concentrations; format: biochemical; conditions: non-linear regression
T1 construct: made in house; host or cells: Expi cells (lysate, not purified)
T1 sequence (Q96AD5 1-504): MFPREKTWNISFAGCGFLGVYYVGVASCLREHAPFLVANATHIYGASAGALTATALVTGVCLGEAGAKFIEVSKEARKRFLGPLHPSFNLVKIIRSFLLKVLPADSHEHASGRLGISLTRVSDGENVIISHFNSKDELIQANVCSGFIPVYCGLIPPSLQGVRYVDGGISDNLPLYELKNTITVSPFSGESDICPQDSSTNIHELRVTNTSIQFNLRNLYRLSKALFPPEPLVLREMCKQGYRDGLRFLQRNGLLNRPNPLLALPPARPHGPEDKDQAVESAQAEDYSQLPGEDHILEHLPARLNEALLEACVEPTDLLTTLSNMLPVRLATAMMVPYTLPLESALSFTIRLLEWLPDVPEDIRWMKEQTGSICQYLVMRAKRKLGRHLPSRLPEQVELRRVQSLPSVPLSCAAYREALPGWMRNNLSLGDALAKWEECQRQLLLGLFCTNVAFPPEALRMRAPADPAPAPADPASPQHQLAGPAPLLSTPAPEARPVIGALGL
Method: For determination of Ki values, lysates from Expi cells overexpressing human ATGL were incubated with recombinant purified ATGL co-activator CGI-58 and ATGL inhibitors at a single concentration dependent on the previously determined IC50. Increasing concentrations of substrate containing radiolabeled triolein were added and liberated FA were extracted and quantified by liquid scintillation. Inhibitors were dissolved in DMSO which was used as control. Ki was determined via non-linear regression analysis. Samples were measured in triplicates.

[2] = system: HepG2 cells; experiment: Toxicity screening (LDH) in HepG2 cells; format: cell-based, human; conditions: 24 h treatment, LDH release
Method: (§1) HepG2 cells were seeded in 96 well plates and at 50% confluency treated with DMSO (0.5% final conc.) or ATGL Inhibitors for 24 h in DMEM+P/S+3% heat inactivated FCS (3 h at 62° C.). Subsequently, LDH activity of 50 μl medium was determined via the Roche LDH Kit. Samples measured in triplicates.

[3] = system: differentiated hMADS adipocytes; experiment: Isoproterenol-stimulated lipolysis in differentiated hMADS adipocytes; format: cell-based; conditions: Homo sapiens, Adipocyte, 2 h pretreatment, 1 μM isoproterenol 1 h
Method: Human differentiated hMADS adipocytes were pretreated with DMSO or ATGL inhibitors for 2 h. Subsequently, lipolysis was stimulated with 1 μM Isoproterenol for 1 h and fatty acid release was determined from media via NEFA Reagent (Wako Diagnostics). Samples were measured in triplicates.
Human differentiated hMADS adipocytes were pretreated with DMSO or ATGL inhibitors for 2 h. Subsequently, lipolysis was stimulated with 1 μM Isoproterenol for 1 h and glycerol release was determined from media via Free glycerol reagent (Sigma Aldrich). Samples were measured in triplicates.

[4] = system: differentiated SGBS adipocytes; experiment: Isoproterenol-stimulated lipolysis in differentiated SGBS adipocytes; format: cell-based; conditions: Homo sapiens, 2 h pretreatment, 1 μM isoproterenol 1 h
Method: Human differentiated SGBS adipocytes were pretreated with DMSO or ATGL inhibitors for 2 h. Subsequently, lipolysis was stimulated with 1 μM Isoproterenol for 1 h and fatty acid release was determined from media via NEFA Reagent (Wako Diagnostics). Samples were measured in triplicates.
Human differentiated SGBS adipocytes were pretreated with DMSO or ATGL inhibitors for 2 h. Subsequently, lipolysis was stimulated with 1 μM Isoproterenol for 1 h and glycerol release was determined from media via Free glycerol reagent (Sigma Aldrich). Samples were measured in triplicates.

[5] = system: differentiated 3T3-L1 adipocytes; experiment: Isoproterenol-stimulated lipolysis in differentiated 3T3-L1 adipocytes; format: cell-based; conditions: Mus musculus, 2 h pretreatment
Method: Mouse differentiated 3T3-L1 adipocytes were pretreated with DMSO or ATGL inhibitors for 2 h. Subsequently, lipolysis was stimulated with 1 μM Isoproterenol for 1 h and fatty acid release was determined from media via NEFA Reagent (Wako Diagnostics). Samples were measured in triplicates.
Mouse differentiated 3T3-L1 adipocytes were pretreated with DMSO or ATGL inhibitors for 2 h. Subsequently, lipolysis was stimulated with 1 μM Isoproterenol for […] and glycerol release was determined from media via Free glycerol reagent (Sigma Aldrich). Samples were measured in triplicates.

[6] = system: AML-12 cells; experiment: Toxicity screening (LDH) in AML-12 cells; format: cell-based, mouse; conditions: 24 h treatment, LDH release
Method: as §1, with “AML-12” for “HepG2”, “80%” for “50%”, “Subsequently, medium was centrifuged at 300 g for 3 min, and” for “Subsequently,”, “supernatant” for “medium”

[7] = fatty acid release, read-out: IC50 SGBS FA release
[8] = glycerol release, read-out: IC50 SGBS glycerol release
[9] = 1 μM isoproterenol 1 h, fatty acid release, read-out: IC50 3T3 FA release
[10] = 1 μM isoproterenol, glycerol release, read-out: IC50 3T3 glycerol release

SMILES	IC50 [4, 7]	IC50 [4, 8]	IC50 [5, 9]	IC50 [5, 10]	Tox AML-12 (LDH) seen from [6]	melting point	further results
CCOc1ccc(-c2nc(C(=O)OCc3cccs3)cs2)cc1 [Example 152, Thiophen-2-ylmethyl 2-(4-ethoxyphenyl)thiazole-4-carboxylate]							Ki [1]: 8.2 µM; Tox HepG2 (LDH) seen from [2]: 200 µM; IC50 ([3]; fatty acid release, read-out: IC50 hMADS FA release): 12 µM; IC50 ([3]; glycerol release, read-out: IC50 hMADS glycerol release): 10 µM
CCOc1ccc(-c2nc(C(=O)OCc3ccsc3)cs2)cc1 [Example 215, Thiophen-3-ylmethyl 2-(4-ethoxyphenyl)thiazole-4-carboxylate]	3 µM	4 µM	6 µM	15 µM			
CCCCOC(=O)c1csc(-c2ccc(OCC)cc2)n1 [Example 212, Butyl 2-(4-ethoxyphenyl)thiazole-4-carboxylate]					200 µM		
CCOc1ccc(-c2cccc(C(=O)OCc3ccco3)n2)cc1 [Example 190, Furan-2-ylmethyl 6-(4-ethoxyphenyl)picolinate]	12 µM	25 µM	6 µM	25 µM	200 µM	76 to 80 °C	
CC#CCOC(=O)c1csc(-c2ccc(OCC)cc2)n1 [Example 209, But-2-yn-1-yl 2-(4-ethoxyphenyl)thiazole-4-carboxylate]					100 µM		Tox HepG2 (LDH) seen from [2]: 200 µM
CCOc1ccc(-c2nc(C(=O)OCc3ccoc3)cs2)cc1 [Example 216, Furan-3-ylmethyl 2-(4-ethoxyphenyl)thiazole-4-carboxylate]	0.8 µM	1 µM	10 µM	25 µM	50 µM		
C#C[C@@H](C)OC(=O)c1csc(-c2ccc(OCC)cc2)n1 [Example 211, (R)-But-3-yn-2-yl 2-(4-ethoxyphenyl)thiazole-4-carboxylate]	0.9 µM	0.9 µM	4 µM	20 µM	100 µM		
COc1cc(C(=O)OC(C)C)nc(-c2ccc(OC(C)C)cc2)c1 [Example 201, Isopropyl 6-(4-isopropoxyphenyl)-4-methoxypicolinate]					200 µM	70 to 71 °C	
C#C[C@H](C)OC(=O)c1csc(-c2ccc(OCC)cc2)n1 [Example 210, (S)-But-3-yn-2-yl 2-(4-ethoxyphenyl)thiazole-4-carboxylate]	0.6 µM	1 µM			200 µM		
CCOc1ccc(-c2cc(OC)cc(C(=O)OC(C)C)n2)cc1 [Example 35]	1 µM	2 µM				79 to 81 °C	Ki [1]: 0.5 µM
CCOc1ccc(-c2cccc(C(=O)OCc3cccs3)n2)cc1 [Example 189, Thiophen-2-ylmethyl 6-(4-ethoxyphenyl)picolinate]					200 µM	93 to 94 °C	
